Measurements reported in article PMC3914206.

Legend:
panel of 442 kinases [1] = biological target: T1, panel of 442 kinases (Homo sapiens, UniProt P21802); format: binding; conditions: Compound Concentration 10 µM
T1 construct: purchased KINOMEscan
Description: (§1) We assessed the selectivity of members of this scaffold using the KINOMEscan methodology across a near comprehensive panel of 442 kinases [[18,27]].

panel of 442 kinases [2] = biological target: T2, panel of 442 kinases (Homo sapiens, UniProt P29322); format: binding; conditions: Compound Concentration 10 µM
T2 construct: purchased KINOMEscan
T2 sequence (P29322 28-1005): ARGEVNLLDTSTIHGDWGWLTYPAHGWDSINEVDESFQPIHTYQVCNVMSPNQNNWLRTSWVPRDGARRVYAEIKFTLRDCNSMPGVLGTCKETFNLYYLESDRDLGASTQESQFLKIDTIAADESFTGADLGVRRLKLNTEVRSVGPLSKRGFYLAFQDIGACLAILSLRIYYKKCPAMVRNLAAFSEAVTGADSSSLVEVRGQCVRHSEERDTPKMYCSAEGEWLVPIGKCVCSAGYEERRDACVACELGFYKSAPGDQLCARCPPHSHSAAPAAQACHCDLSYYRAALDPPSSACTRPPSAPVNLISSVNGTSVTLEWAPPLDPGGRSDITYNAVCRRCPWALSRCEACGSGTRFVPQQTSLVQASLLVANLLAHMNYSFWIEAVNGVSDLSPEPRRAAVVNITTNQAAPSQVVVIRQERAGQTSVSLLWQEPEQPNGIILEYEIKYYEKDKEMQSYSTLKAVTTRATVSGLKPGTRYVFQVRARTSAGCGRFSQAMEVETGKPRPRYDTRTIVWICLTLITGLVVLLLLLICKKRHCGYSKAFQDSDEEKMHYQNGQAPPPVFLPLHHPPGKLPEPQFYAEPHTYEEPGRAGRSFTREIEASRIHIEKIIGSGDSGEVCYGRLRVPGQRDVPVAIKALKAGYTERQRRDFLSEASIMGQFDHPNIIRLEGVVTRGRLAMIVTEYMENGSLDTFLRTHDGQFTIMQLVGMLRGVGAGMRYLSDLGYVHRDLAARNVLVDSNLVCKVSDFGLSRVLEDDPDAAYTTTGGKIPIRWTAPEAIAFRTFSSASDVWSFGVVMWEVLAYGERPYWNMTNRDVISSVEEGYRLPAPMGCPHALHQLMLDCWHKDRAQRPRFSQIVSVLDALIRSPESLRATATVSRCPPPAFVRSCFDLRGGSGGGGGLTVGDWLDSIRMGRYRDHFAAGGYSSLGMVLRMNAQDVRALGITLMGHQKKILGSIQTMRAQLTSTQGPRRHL
Description: as §1

T1 sequence (P21802 22-821): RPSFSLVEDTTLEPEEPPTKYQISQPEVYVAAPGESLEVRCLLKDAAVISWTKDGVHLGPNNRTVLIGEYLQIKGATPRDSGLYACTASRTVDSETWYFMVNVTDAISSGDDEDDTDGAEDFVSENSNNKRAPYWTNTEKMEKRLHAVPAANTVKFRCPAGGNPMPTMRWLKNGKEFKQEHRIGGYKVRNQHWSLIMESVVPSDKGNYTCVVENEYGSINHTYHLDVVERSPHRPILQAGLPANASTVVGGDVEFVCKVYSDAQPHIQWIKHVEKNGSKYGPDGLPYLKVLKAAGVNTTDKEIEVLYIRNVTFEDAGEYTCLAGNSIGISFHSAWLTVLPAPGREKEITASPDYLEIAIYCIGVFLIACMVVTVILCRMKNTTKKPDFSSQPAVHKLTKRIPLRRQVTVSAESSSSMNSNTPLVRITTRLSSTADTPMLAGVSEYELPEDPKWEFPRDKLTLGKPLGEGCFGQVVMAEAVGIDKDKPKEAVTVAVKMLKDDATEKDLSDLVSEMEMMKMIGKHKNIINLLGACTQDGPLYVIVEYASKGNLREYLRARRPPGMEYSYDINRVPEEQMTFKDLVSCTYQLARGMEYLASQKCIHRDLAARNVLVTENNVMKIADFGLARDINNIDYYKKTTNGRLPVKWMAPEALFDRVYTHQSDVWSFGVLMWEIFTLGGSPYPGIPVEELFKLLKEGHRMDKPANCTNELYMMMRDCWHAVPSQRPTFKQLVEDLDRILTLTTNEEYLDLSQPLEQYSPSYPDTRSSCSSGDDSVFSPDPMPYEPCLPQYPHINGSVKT

COc1cc(C(=O)N2CCC(N3CCN(C)CC3)CC2)ccc1Nc1ncc2c(n1)N(C)c1ccccc1C(=O)N2C [15 (LRRK2-IN-1)]
KINOMEscan: FGFR2 (panel of 442 kinases [1]): 95 | KINOMEscan: EPHA8 (panel of 442 kinases [2]): 80

CCOc1cc(C(=O)N2CCC(N3CCN(C)CC3)CC2)ccc1Nc1ncc2c(n1)N(C1CCCC1)c1ccccc1C(=O)N2C [Compound 26]
KINOMEscan: FGFR2 (panel of 442 kinases [1]): 100 | KINOMEscan: EPHA8 (panel of 442 kinases [2]): 100

COc1cc(C(=O)N2CCC(N3CCN(C)CC3)CC2)ccc1Nc1ncc2c(n1)N1CCc3cccc(c31)C(=O)N2C [Compound 24]
KINOMEscan: FGFR2 (panel of 442 kinases [1]): 83 | KINOMEscan: EPHA8 (panel of 442 kinases [2]): 72

COc1cc(C(=O)N2CCC(N3CCN(C)CC3)CC2)ccc1Nc1ncc2c(n1)N(C1CCCC1)c1ccccc1C(=O)N2C [Compound 25, 11-cyclopentyl-2-((2-methoxy-4-(4-(4-methylpiperazin-1-yl)piperidine-1-carbonyl)phenyl)amino)-5-methyl-5H-benzo[e]pyrimido[5,4-b][1,4]diazepin-6(11H)-one]
KINOMEscan: FGFR2 (panel of 442 kinases [1]): 100 | KINOMEscan: EPHA8 (panel of 442 kinases [2]): 97
